Data from patent US20060281791A1, “Methods of increasing proliferation of adult mammalian cardiomyocytes through p38 map kinase inhibition” (CHILDREN'S MEDICAL CENTER CORPORATION, priority 2005, published 2006).

Tests used:
[1] = system: myocardial infarction in adult rats; assay: Fractional shortening (echocardiography) after myocardial infarction; assay type: in vivo, rat
Method: The p38 inhibitors were tested for in vivo effect following myocardial infarct. For the evaluation of left ventricular function, transthoracic echocardiogram can be performed on the rats after myocardial infarction 1 day or 14 days right. Rats can be anesthetized with 4-5% isoflurane in an induction chamber. The chest can be shaved, and the rats can be placed in dorsal decubitus position and intubated for continuous ventilation. 1-2% isoflurane can be continuously supplied via a mask. 3 electrodes can be adhered to their paws to record the electrocardiographic tracing simultaneously with the cardiac image identifying the phase of a cardiac cycle.
Echocardiograms can be performed with a commercially available echocardiography system equipped with 7.5 MHz phased-array transducer (Philips-Hewlett-Packard). The transducer can be positioned on the left anterior side of the chest. Longitudinal images of the heart can be obtained, including the left ventricle, atrium, the mitral valve and the aorta, followed by the cross-sectional images from the plane of the base to the left ventricular apical region. M-mode tracings can be obtained at the level below the tip of the mitral valve leaflets at the level of the papillary muscles. Fractional shorting (FS) can be calculated as a measure of systolic function, according to the M-mode tracing from the cross-sectional view: maximal LV end-diastolic diameter (at the time of maximal cavity dimension), minimal LV end-systolic diameter (at the time of maximum anterior motion of the posterior wall), FS (%)={(LVEDD−LVESD)/LVEDD}×100.
To determine whether p38 inhibition/FGF1 stimulation can induce cardiomyocyte proliferation in vivo and whether it has a positive effect on cardiac function after cardiac injury we created myocardial infarctions (MI) in adult rats (250 g) by coronary artery ligation. The p38 inhibitor SB203580 HCl or its vehicle, saline, were injected intraperitoneal every three days for the first month of the study. FGF1 or its carrier BSA was injected mixed with self-assembling peptides once into the infarct border zone immediately after coronary artery ligation. We injecting a total of 80 μl of 400 ng/ml FGF1, given at 3 different injection sites, into 400 mg of infarcted myocardium estimated to deliver a FGF 1 concentration to the cardiomyocytes of approximately 50 to 100 ng/ml. Animals were analyzed 24 hours, 2 weeks, and 3 month after surgery. We performed two blinded and randomized studies using 62 rats for the 2 week and 61 rats for the 3 month experiment, with at least 10 animals in each experimental group. Animals were treated with saline plus BSA (control), SB203580 HCl plus BSA (p38i), saline plus FGF1 (FGF1), or SB203580 HCl plus FGF1 (p38i/FGF1).
Animal experiments were performed in accordance with guidelines of Children's Hospital in Boston and were approved by the Harvard Medical School Standing Committee on Animals. Myocardial infarction (MI) was produced in ˜250 gm male Sprague-Dawley rats (Charles River and Harlan) as described previously (Hsieh et al., 2006). Briefly, rats were anesthetized by pentobarbital and, following tracheal intubation, the hearts were exposed via left thoracotomy. The left coronary artery was identified after pericardiotomy and was ligated by suturing with 6-0 prolene at the location ˜3mm below the left atrial appendix. For the sham operation, suturing was performed without ligation. […]

[2] = cited from earlier work
ERK = details: cited from earlier work
JNK = details: cited from earlier work
p38 MAP kinase = details: cited from earlier work
[3] = system: LPS-stimulated human peripheral blood monocytes; details: cited from earlier work
[4] = system: neonatal (P2) cardiomyocytes; assay: Induction of DNA synthesis (BrdU incorporation) in neonatal cardiomyocytes; assay type: cell-based, rat; details: BrdU labeling period 24 to 72 hours; harvested after 72 hours; optimal concentration of stimulus
Method: Animal experiments were performed in accordance with guidelines of Children's Hospital, Boston and UCLA. Ventricular cardiomyocytes from fetal (E19), 2-day-old (P2) and adult (250-350 g) Wistar rats (Charles River) were isolated as described with minor modifications (Engel et al. 1999; Engel et al. 2003). After digestion of fetal or neonatal hearts (0.14 mg/ml collagenase II (Invitrogen), 0.55 mg/ml pancreatin (Sigma)) cells were cultured in DMEM/F12 (GIBCO) containing 3 mM Na-pyruvate, 0.2% BSA, 0.1 mM ascorbic acid (Sigma), 0.5% Insulin-Transferrin-Selenium (100×), penicillin (100 U/ml), streptomycin (100 μg/ml), and 2 mM L-glutamine (GIBCO). Adult cardiomyocytes were cultured for 1 day in standard medium (DMEM, 25 mM Hepes, 5 mM taurine, 5 mM creatine, 2 mM L-carnitine (Sigma), 20 U/ml insulin (GIBCO), 0.2% BSA, penicillin (100 U/ml), and streptomycin (100 μg/ml)). Cells were stimulated in culture medium without BSA containing 2 mM L-glutamine. Neonatal and adult cardiomyocytes were initially cultured for 48 h in the presence of 20 μM cytosine β-D-arabinofuranoside (araC, Sigma) and 5% horse serum before stimulation to prevent proliferation of non-myocytes. Adult cardiomyocytes were incubated another 3 days with araC during stimulation. Neonatal cardiomyocytes were stimulated every day with growth factors for BrdU and H3P analyses (FGF1 and NRG-1-1β at 50 ng/ml, IL-1β at 100 ng/ml, R&D Systems, all diluted in 0.1% BSA/PBS). SB203580 and LY294002 (Calbiochem) was added every day. Adult cardiomyocytes were stimulated with fresh medium and SB203580 every 3 days.
Staining was performed as described (Supplemental Table S3) (Engel et al. 1999; Engel et al. 2003). Immune complexes were detected with ALEXA 350, ALEXA 488 or ALEXA 594-conjugated secondary antibodies (1:200, Molecular Probes). DNA was visualised with DAPI (4′,6′-diamidino-2-phenylindole, 0.5 μg/ml, Sigma). For BrdU, cells were cultured in 30 μM BrdU, incubated after permeabilization for 90 min in 2N HCl/1% triton X-100 and washed 3 times in PBS.
Eighteen to 40 hearts of 3 different litters were used for quantitative analyses of maximal areas. For immunofluorescence analyses 1,500 fetal or neonatal cardiomyocytes were counted. For adult cardiomyocyte analyses in vitro the following number of cells were counted: 500-2,000 for BrdU or Ki67, 9,000-25,000 for H3P, and 12,000-45,000 for aurora B. For in vivo MKK3bE and p38α knockout experiments 2 different litters were used. We counted 1,500-2,000 cells in each apex, left and right ventricle per heart. For adult experiments we analyzed 2 p38α^Δ/Δ and 2 p38^lox/lox hearts (24 sections each). Statistical significance was determined using Student's t test.
Several growth factors have a limited capacity to induce DNA synthesis in neonatal cardiomyocytes, including FGF1 (Pasumarthi and Field 2002). We screened 45 extracellular factors at two different concentrations for their ability to induce BrdU incorporation in neonatal (P2) cardiomyocytes. […] We confirmed previous studies showing that FGF1, IL-1β, and NRG-1-β1 are potent growth factors for neonatal cardiomyocytes (Supplemental Table S2) (Pasumarthi and Field 2002 Circ Res 90: 1044-54).
Inhibition of p38 activity by SB203580 increased BrdU incorporation 2.8-fold in neonatal cardiomyocytes stimulated with FGF1 (p<0.01). Similar results were obtained after stimulation with IL-1β and NRG-1-β1. Thus, inhibition of p38 activity augments growth factor-mediated DNA synthesis in neonatal cardiomyocytes.

C[S+]([O-])c1ccc(-c2nc(-c3ccc(F)cc3)c(-c3ccncc3)[nH]2)cc1.Cl (stereo not shown) [SB203580 HCl]
improvement of fractional shortening ([1]; 3 month after infarction): maintained
improvement of fractional shortening ([1]; day 14 after infarction): maintained
water solubility [2]: water insoluble

COc1nccc(-c2c(-c3ccc(F)cc3)ncn2[C@H]2CC[C@H](O)CC2)n1 [SB239063]
selectivity over ERK (ERK): > 200 fold
selectivity over JNK (JNK): > 200 fold
p38 MAP kinase inhibition (in words) (p38 MAP kinase): potent
IL-1 and TNF-β production [3]: inhibits

FGF2
% of BrdU positive neonatal cardiomyoctes [4]: 22.2 ± 1.8%

IL-1β
% of BrdU positive neonatal cardiomyoctes [4]: 41.3 ± 3.2%

TGFβ1
% of BrdU positive neonatal cardiomyoctes [4]: 17.4 ± 2.2%

CCc1nc(-c2ccc(OC)cc2)[nH]c1-c1ccncc1 [SB202474]
p38 MAP kinase inhibition (in words) (p38 MAP kinase): inactive

CNC[C@H](O)c1cccc(O)c1 [PE]
% of BrdU positive neonatal cardiomyoctes [4]: 23.7 ± 3.1%

B1: FGF4 (protein, UniProt P08620 31-206, looked up)
Fibroblast growth factor 4: APTAPNGTLEAELERRWESLVALSLARLPVAAQPKEAAVQSGAGDYLLGIKRLRRLYCNVGIGFHLQALPDGRIGGAHADTRDSLLELSPVERGVVSIFGVASRFFVAMSSKGKLYGSPFFTDECTFKEILLPNNYNAYESYKYPGMFIALSKNGKTKKGNRVSPTMKVTHFLPRL
% of BrdU positive neonatal cardiomyoctes [4]: 46.5 ± 3.9%

B2: CT-1 (protein, UniProt Q16619 1-201, looked up)
Cardiotrophin-1: MSRREGSLEDPQTDSSVSLLPHLEAKIRQTHSLAHLLTKYAEQLLQEYVQLQGDPFGLPSFSPPRLPVAGLSAPAPSHAGLPVHERLRLDAAALAALPPLLDAVCRRQAELNPRAPRLLRRLEDAARQARALGAAVEALLAALGAANRGPRAEPPAATASAASATGVFPAKVLGLRVCGLYREWLSRTEGDLGQLLPGGSA
% of BrdU positive neonatal cardiomyoctes [4]: 11.2 ± 1.1%

B3: FGF6 (protein, UniProt P10767 38-208, looked up)
Fibroblast growth factor 6: SPAGTRANNTLLDSRGWGTLLSRSRAGLAGEIAGVNWESGYLVGIKRQRRLYCNVGIGFHLQVLPDGRISGTHEENPYSLLEISTVERGVVSLFGVRSALFVAMNSKGRLYATPSFQEECKFRETLLPNNYNAYESDLYQGTYIALSKYGRVKRGSKVSPIMTVTHFLPRI
% of BrdU positive neonatal cardiomyoctes [4]: 47.3 ± 3.3%

B4: FGF17 (protein, UniProt O60258 23-216, looked up)
Fibroblast growth factor 17: TQGENHPSPNFNQYVRDQGAMTDQLSRRQIREYQLYSRTSGKHVQVTGRRISATAEDGNKFAKLIVETDTFGSRVRIKGAESEKYICMNKRGKLIGKPSGKSKDCVFTEIVLENNYTAFQNARHEGWFMAFTRQGRPRQASRSRQNQREAHFIKRLYQGQLPFPNHAEKQKQFEFVGSAPTRRTKRTRRPQPLT
% of BrdU positive neonatal cardiomyoctes [4]: 31.1 ± 1.7%
